Reference: patent publication US20050143391A1, “Heterocyclic amides with alpha-4 integrin antagonist activity” (J. Uriach Y Compañia S.A., priority 2002, published 2005)
pIC50: −log10 of the molar value.

biological target: T1, integrin α4β1 (Homo sapiens, UniProt P05556+P13612); assay: Inhibition of α4β1-dependent cell adhesion (Jurkat cells to peptide CS-1); type: cell-based; details: adhesion of Jurkat cells to CS-1-coated plates; products preincubated with cells at 37° C. for 30 minutes; at least 6 product concentrations
T1 construct: endogenous in cells; host or cells: Jurkat cells
T1 sequence (P13612 34-1032): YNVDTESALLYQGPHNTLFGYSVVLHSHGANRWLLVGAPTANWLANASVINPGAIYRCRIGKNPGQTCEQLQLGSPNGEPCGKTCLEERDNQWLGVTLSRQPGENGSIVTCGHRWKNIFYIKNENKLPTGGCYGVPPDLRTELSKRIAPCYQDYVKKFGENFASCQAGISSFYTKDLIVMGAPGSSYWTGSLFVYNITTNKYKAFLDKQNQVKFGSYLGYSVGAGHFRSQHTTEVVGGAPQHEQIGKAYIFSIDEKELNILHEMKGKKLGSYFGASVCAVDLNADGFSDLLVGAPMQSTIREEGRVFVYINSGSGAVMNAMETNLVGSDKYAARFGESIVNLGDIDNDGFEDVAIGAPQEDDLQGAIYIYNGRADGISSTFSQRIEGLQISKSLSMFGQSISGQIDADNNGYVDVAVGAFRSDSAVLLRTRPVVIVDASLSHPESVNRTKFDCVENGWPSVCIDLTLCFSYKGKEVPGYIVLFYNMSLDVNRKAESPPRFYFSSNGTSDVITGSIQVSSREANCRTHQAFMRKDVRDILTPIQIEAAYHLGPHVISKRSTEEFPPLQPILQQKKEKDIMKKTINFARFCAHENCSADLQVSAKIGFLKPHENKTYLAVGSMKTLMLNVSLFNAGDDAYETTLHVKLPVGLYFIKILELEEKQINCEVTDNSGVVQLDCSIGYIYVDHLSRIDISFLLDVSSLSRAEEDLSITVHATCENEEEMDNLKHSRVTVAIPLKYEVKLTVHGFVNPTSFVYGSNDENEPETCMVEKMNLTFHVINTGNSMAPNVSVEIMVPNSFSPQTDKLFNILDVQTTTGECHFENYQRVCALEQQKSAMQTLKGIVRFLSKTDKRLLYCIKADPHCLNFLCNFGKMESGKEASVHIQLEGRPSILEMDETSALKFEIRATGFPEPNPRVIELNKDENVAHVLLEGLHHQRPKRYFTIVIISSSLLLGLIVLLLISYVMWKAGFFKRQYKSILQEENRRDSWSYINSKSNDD
T1 sequence (P05556 21-798): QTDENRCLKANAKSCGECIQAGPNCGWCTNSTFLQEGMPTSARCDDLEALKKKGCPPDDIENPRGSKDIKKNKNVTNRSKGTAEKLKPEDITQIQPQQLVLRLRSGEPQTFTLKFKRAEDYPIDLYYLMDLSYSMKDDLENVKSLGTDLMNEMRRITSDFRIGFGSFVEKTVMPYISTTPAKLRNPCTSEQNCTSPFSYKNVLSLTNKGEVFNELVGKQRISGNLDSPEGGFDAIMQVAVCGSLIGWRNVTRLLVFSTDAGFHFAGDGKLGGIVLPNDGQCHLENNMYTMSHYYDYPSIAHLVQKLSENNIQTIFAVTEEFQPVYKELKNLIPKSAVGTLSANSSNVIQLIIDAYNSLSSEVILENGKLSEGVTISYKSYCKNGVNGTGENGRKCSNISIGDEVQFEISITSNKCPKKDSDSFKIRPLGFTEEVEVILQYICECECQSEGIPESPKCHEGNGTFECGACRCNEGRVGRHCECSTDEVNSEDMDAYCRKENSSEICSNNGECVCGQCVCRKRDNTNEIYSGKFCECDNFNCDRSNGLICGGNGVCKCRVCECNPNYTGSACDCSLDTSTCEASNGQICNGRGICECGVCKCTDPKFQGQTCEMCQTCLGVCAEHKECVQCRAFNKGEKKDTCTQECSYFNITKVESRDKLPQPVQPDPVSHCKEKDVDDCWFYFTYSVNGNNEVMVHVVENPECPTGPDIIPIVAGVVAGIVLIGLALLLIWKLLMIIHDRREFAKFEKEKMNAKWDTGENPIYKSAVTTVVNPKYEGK
Method: Inhibition of α4β1-Dependent Cell Adhesion
Inhibition of α4β1-dependent cell adhesion was assayed by evaluating the interaction between the peptide CS-1 (H-CLHGPEILDVPST-CONH2) and Jurkat cells (T lymphocyte cell line expressing activated integrin α4β1 but not integrin α4β7) after preincubation of said cells with the compounds of formula I to be tested. The peptide CS-1 was synthesized by conventional solid phase chemistry and purified by HPLC. Its identity was determined by elemental analysis and mass spectroscopy.
1.—Preparation of CS-1-Coated Plates
96-black well plates (Costar 3925) were used. 200 μL of 2% bovine serum albumin solution (BSA, Sigma α4503) was added per well and the plate was incubated for 2 hours at 37° C. The solution was discarded and the plate was washed twice with 200 μL of phosphate buffered saline solution (PBS, Gibco 14190-094) per well. Then, 200 μL of 10 μg/mL N-succinimidyl 3-(2-pyridyldithio)propionate solution (SPDP, Sigma P-3415) was added per well, and the plate was incubated at 37° C. for 30 minutes. The remaining solution was discarded and the plate was twice washed with 200 μL per well of PBS. Next, 200 μL of 25 μg/mL CS-1 peptide solution (equivalent to 5 μg/well) was added per well and the plate was incubated at 37° C. for 2 hours and then overnight at 4° C.
2.—Jurkat Cell Line: Culture and Fluorescent Labelling
Jurkat cells were kept in culture at a density comprised between 2×10^5 and 1.5×10^6 cells/mL in 1640 RPMI medium (Gibco 21875-034) enriched with 10% fetal calf serum (FCS, Gibco 10270-106).
50×10^6 cells were extracted, centrifuged (1200 rpm, 10 min, room temperature) and the medium was discarded. Cells were resuspended in 5 mL of RPMI, and 10 μL of a 1 mM solution of the fluorophore calceine.AM (Molecular Probes, C-3100) was added. The suspension was incubated for 30 min at 37° C. in the darkness, with occasional shaking. 40 mL of RPMI was added to stop the labelling and the suspension was centrifuged (1200 rpm, 10 min, room temperature). The medium was discarded, and the labelled cells were washed with 40 mL of RPMI in order to remove the unincorporated fluorescent probe. Finally, cells were resuspended in RPMI enriched with 10% FCS to obtain a 8×10^6 cells/mL suspension.
The plate previously prepared was twice washed with 200 μL per well of PBS and blocked with 200 μL of 1% BSA for at least 1 hour at room temperature.
The products to be tested were dissolved in dimethylsulfoxide at a concentration of 10 mM and dilutions thereof were prepared in RPMI medium enriched with 10% FCS. The products were preincubated with the Jurkat cells at 37° C. for 30 minutes, at a product concentration comprised between 1 nM and 10 μM, at a cell density of 4×10^6 cells/mL and at a maximal dimethylsulfoxide concentration of 0.1%.
100 μL of the resulting cell-product supsension was added per well (cellular density 4×10^5 cells/well). The product was omitted in the control wells and cells or CS-1 were omitted in the blanks. The plate was incubated for 60 min at room temperature in the-darkness, was twice washed with 200 μL per well of RPMI and then 100 μL of PBS was added. The plate was read with a fluorescence reader at an excitation wavelength of 485 nm and at an emission wavelength of 530 nm.
Maximal adhesion (100%) was determined as the average of the fluorescence intensities (FI) of the control wells, and the minimal adhesion as the average FI of the blanks. The adhesion inhibition percentage was determined using the following formula: [formula]
The results are expressed as the IC50 values (concentration producing 50% inhibition). IC50 values were calculated by testing at least 6 product concentrations and by adjusting the inhibition percentages to a dose-response curve of variable slope.

SMILES	pIC50
O=C(O)[C@H](CCC(=O)N1CCC(CN2Cc3ccccc3C2=O)CC1)NC(=O)[C@@H]1CCCN1S(=O)(=O)c1cc(Cl)cc(Cl)c1 [Example 54, (2S)-5-[4-[(1-Oxoisoindolin-2-yl)methyl]piperidin-1-yl]-2-[1-(3,5-dichlorophenylsulfonyl)-L-prolylamino]-5-oxopentanoic Acid]	7.66
CC(C)CC(=O)NCC1CCN(C(=O)CC[C@H](NC(=O)[C@@H]2CCCN2S(=O)(=O)c2cc(Cl)cc(Cl)c2)C(=O)O)CC1 [Example 55, (2S)-2-[1-(3,5-Dichlorophenylsulfonyl)-L-prolylamino]-5-[4-[(3-methylbutanoylamino)methyl]piperidin-1-yl]-5-oxopentanoic Acid]	7.24
CC(C)(C)NC(=O)NCC1CCN(C(=O)CC[C@H](NC(=O)[C@@H]2CCCN2S(=O)(=O)c2cc(Cl)cc(Cl)c2)C(=O)O)CC1 [Example 56, (2S)-5-[4-[(N′-tert-Butylureido)methyl]piperidin-1-yl]-2-[1-(3,5-dichlorophenylsulfonyl)-L-prolylamino]-5-oxopentanoic Acid]	7.64
CC(C)NC(=S)NCC1CCN(C(=O)CC[C@H](NC(=O)[C@@H]2CCCN2S(=O)(=O)c2cc(Cl)cc(Cl)c2)C(=O)O)CC1 [Example 58, (2S)-2-[1-(3,5-Dichlorophenylsulfonyl)-L-prolylamino]-5-[4-[(N′-isopropylthioureido)methyl]piperidin-1-yl]-5-oxopentanoic Acid]	6.78
CCc1nc2c(C)cc(C)nc2n1CCC1CCN(C(=O)CC[C@H](NC(=O)[C@@H]2CCCN2S(=O)(=O)c2cc(Cl)cc(Cl)c2)C(=O)O)CC1 [Example 59, (2S)-2-[1-(3,5-Dichlorophenylsulfonyl)-L-prolylamino]-5-[4-[2-(2-ethyl-5,7-dimethylimidazo[4,5-b]pyridin-3-yl)ethyl]piperidin-1-yl]-5-oxopentanoic Acid]	7.88
CC(C)S(=O)(=O)NCC1CCN(C(=O)CC[C@H](NC(=O)[C@@H]2CCCN2S(=O)(=O)c2cc(Cl)cc(Cl)c2)C(=O)O)CC1 [Example 60, (2S)-2-[1-(3,5-Dichlorophenylsulfonyl)-L-prolylamino]-5-[4-[(isopropylsulfonylamino)methyl]piperidin-1-yl]-5-oxopentanoic Acid]	7.94
O=C(O)[C@H](CCC(=O)N1CCC(CCOC(=O)N2CCCC2)CC1)NC(=O)[C@@H]1CCCN1S(=O)(=O)c1cc(Cl)cc(Cl)c1 [Example 61, (2S)-2-[1-(3,5-Dichlorophenylsulfonyl)-L-prolylamino]-5-oxo-5-[4-[2-(pyrrolidin-1-ylcarbonyloxy)ethyl]piperidin-1-yl]pentanoic Acid]	8.64
Cc1ccc(S(=O)(=O)N2CCC[C@H]2C(=O)N[C@@H](CCC(=O)N2CCC(CN3CCCC3=O)CC2)C(=O)O)cc1 [Example 62, (2S)-5-Oxo-5-[4-[(2-oxopyrrolidin-1-yl)methyl]piperidin-1-yl]-2-[1-tosyl-L-prolylamino]pentanoic Acid]	6.73
Cc1ccc(S(=O)(=O)N2CCC[C@H]2C(=O)N[C@@H](CCC(=O)N2CCC(Cn3ccnc3-c3ccccc3)CC2)C(=O)O)cc1 [Example 63, (2S)-5-Oxo-5-[4-(2-phenylimidazol-1-ylmethyl)piperidin-1-yl]-2-[1-tosyl-L-prolylamino]pentanoic Acid]	6.70
Cc1ccc(S(=O)(=O)N2CCC[C@H]2C(=O)N[C@@H](CCC(=O)N2CCC(CNc3nccc(C(F)(F)F)n3)CC2)C(=O)O)cc1 [Example 64, (2S)-5-Oxo-2-[1-tosyl-L-prolyl]amino-5-[4-[[4-(trifluoromethyl)pyrimidin-2-yl]aminomethyl]piperidin-1-yl]pentanoic Acid]	6.71
CCc1nc2c(C)cc(C)nc2n1CC1CCN(C(=O)CC[C@H](NC(=O)[C@@H]2CCCN2S(=O)(=O)c2cc(Cl)cc(Cl)c2)C(=O)O)CC1 [Example 65]	7.35
COCCNC(=O)OCCC1CCN(C(=O)CC[C@H](NC(=O)[C@@H]2CCCN2S(=O)(=O)c2cc(Cl)cc(Cl)c2)C(=O)O)CC1 [Example 66]	8.46
O=C(O)[C@H](CCC(=O)N1CCC(CNC(=O)N2CCOCC2)CC1)NC(=O)[C@@H]1CCCN1S(=O)(=O)c1cc(Cl)cc(Cl)c1 [Example 67, (2S)-2-[1-(3,5-Dichlorophenylsulfonyl)-L-prolylamino]-5-[4-(4-morpholinylcarbonylaminomethyl)piperidin-1-yl]-5-oxopentanoic Acid]	7.48
O=C(O)[C@H](CCC(=O)N1CCC(CN2CCOC2=O)CC1)NC(=O)[C@@H]1CCCN1S(=O)(=O)c1cc(Cl)cc(Cl)c1 [Example 70, (2S)-2-[1-(3,5-Dichlorophenylsulfonyl)-L-prolylamino]-5-oxo-5-[4-(2-oxooxazolidin-3-ylmethyl)piperidin-1-yl]pentanoic Acid]	7.77
O=C(O)[C@H](CCC(=O)N1CCC(CN2CCCC2=O)CC1)NC(=O)[C@@H]1CCCN1S(=O)(=O)c1cc(Cl)cc(Cl)c1 [Example 71, (2S)-2-[1-(3,5-Dichlorophenylsulfonyl)-L-prolylamino]-5-[4-(2-oxopyrrolidin-1-ylmethyl)piperidin-1-yl]-5-oxopentanoic Acid]	7.43
Cc1nc2cnccc2n1CC1CCN(C(=O)CC[C@H](NC(=O)[C@@H]2CCCN2S(=O)(=O)c2cc(Cl)cc(Cl)c2)C(=O)O)CC1 [Example 72, (2S)-2-[1-(3,5-Dichlorophenylsulfonyl)-L-prolylamino]-5-[4-(2-methylimidazo[4,5-c]pyridin-1-ylmethyl)piperidin-1-yl]-5-oxopentanoic Acid]	7.82
Cc1ccc(S(=O)(=O)N2CCC[C@H]2C(=O)N[C@@H](CCC(=O)N2CCC(Cn3c(C)nc4cnccc43)CC2)C(=O)O)cc1 [Example 73, (2S)-5-[4-(2-Methylimidazo[4,5-c]pyridin-1-ylmethyl)piperidin-1-yl]-5-oxo-2-[1-tosyl-L-prolylamino]pentanoic Acid]	7.24
CCOCCn1c(CN2CCN(C(=O)CC[C@H](NC(=O)[C@@H]3CCCN3S(=O)(=O)c3ccc(C)cc3)C(=O)O)CC2)nc2ccccc21 [Example 74, (2S)-5-[4-[[1-(2-Ethoxyethyl)benzimidazol-2-yl]methyl]piperazin-1-yl]-5-oxo-2-[[1-tosyl-L-prolyl]amino]pentanoic Acid]	7.32
Cc1ccc(S(=O)(=O)N2CCC[C@H]2C(=O)N[C@@H](CCC(=O)N2CCN(Cc3ccccn3)CC2)C(=O)O)cc1 [Example 75, (2S)-5-Oxo-5-[4-(2-pyridylmethyl)piperazin-1-yl]-2-[[1-tosyl-L-prolyl]amino]pentanoic Acid]	7.00
Cc1ccc(S(=O)(=O)N2CCC[C@H]2C(=O)N[C@@H](CCC(=O)N2CCC(CN3Cc4ccccc4C3=O)CC2)C(=O)O)cc1 [Example 76, (2S)-5-Oxo-5-[4-(1-oxoisoindolin-2-ylmethyl)piperidin-1-yl]-2-[[1-tosyl-L-prolyl]amino]pentanoic Acid]	7.17
Cc1ccc(S(=O)(=O)N2CCC[C@H]2C(=O)N[C@@H](CCC(=O)N2CCN(Cc3cccs3)CC2)C(=O)O)cc1 [Example 77, (2S)-5-Oxo-5-[4-(2-thienylmethyl)piperazin-1-yl]-2-[[1-tosyl-L-prolyl]amino]pentanoic Acid]	6.61
CN1CCN(CC2CCN(C(=O)CC[C@H](NC(=O)[C@@H]3CCCN3S(=O)(=O)c3cc(Cl)cc(Cl)c3)C(=O)O)CC2)CC1 [Example 79, (2S)-2-[1-(3,5-Dichlorophenylsulfonyl)-L-prolylamino]-5-[4-(4-methylpiperazin-1-ylmethyl)piperidin-1-yl]-5-oxopentanoic Acid]	8.12
